≈ marks a conversion by molar mass, not a printed value.
Key:
[1] = system: Staphylococcus isolates (methicillin-sensitive and methicillin-resistant); test: Minimum inhibitory concentration assay (Example 1); format: cell-based; conditions: for MIC50 and MIC90 values compared with ampicillin: methicillin-resistant isolates
Method: Forty-two isolates of Staphylococcus of varying species and strain type were collected from isolate collections. Biochemical testing including coagulase, latex agglutination testing for protein A, Vogues-Proskauer tests and resistance to polymyxin B were used to identify the species of Staphylococcus. All isolates were also screened for resistance to various antimicrobials commonly used for the treatment of infections. This was performed using the disk diffusion method and resistance standards as outlined by the CLSI. The following antimicrobials were used: amoxicillin-clavulanic acid (30 μg), cephalothin (30 μg), clindamycin (2 μg), enrofloxacin (5 μg), erythromycin (15 μg), gentamicin (10 μg), imipenem (10 μg), oxacillin (1 μg), penicillin G (10 units), tetracycline (30 μg), 1:19 trimethoprim-sulfamethoxazole (25 μg) and vancomycin (30 μg).
Minimum inhibitory concentration tests were performed according to CLSI Standards (CLSI 2012). 90 μL of one of the test compound solutions, or ampicillin, was added to the end column of a 96 well plate that contained 90 μL of CAMHB in each well. The solutions were then serially diluted across the row, leaving 2 columns for positive and negative controls (FIG. 2). A bacterial suspension was prepared by adding fresh colonies obtained from an overnight culture on Sheep Blood Agar (SBA) to a 9.1 g/L saline solution. This suspension was adjusted to a concentration of between 4×10^8 and 5×10^8 CFU/mL. Concentration of the suspension was determined by measuring optical density (OD) using a spectrophotometer at a wavelength of 600 nm where the correct concentration was determined to have an optical density of between 1.00 and 1.20. 1 mL of this suspension was added to 9 mL of saline before being added to all wells, excluding the negative control wells, in 10 μL volumes giving a final concentration of between 4×10^5 and 5×10^5 CFU/mL in each well. The tests were then incubated for 24 hours at 37° C. and then assessed both visually and using OD readings from a microplate reader at a wavelength of 600 nm. These tests were performed in duplicate but repeated if discrepancies were observed.
The minimum inhibitory concentration (MIC) was determined to be the lowest concentration of antibiotic that prevented growth of bacteria both visually and using OD readings. Direct statistical comparisons between the test compounds and ampicillin could not be performed in light of confidential information restrictions, such as restrictions on disclosure of information relating to the compound structure, such as molecular weight. Instead, MIC values were collated and used to determine the lowest concentration of each compound that was effective against 50% and 90% of isolates, referred to as the MIC50 and MIC90 respectively. These values as well as the range of MIC values were then used for direct comparisons between test compounds and for general comparisons with ampicillin.

[2] = system: Staphylococcus isolates (methicillin-sensitive and methicillin-resistant); test: Minimum bactericidal concentration determination (Example 1); format: cell-based; conditions: for bactericidal activity (MBC testing): methicillin-sensitive and methicillin-resistant strains
Method: Following determination of the MIC using the 96 well MIC plate, a variation of the drop plate method was used to determine minimum bactericidal concentration (MBC) for each of the test compounds. These were analysed using samples taken from the MIC plate following incubation. For each compound, a 10 μL drop of each concentration equal to or higher than the MIC was pipetted onto Sheep Blood Agar in a clockwise manner (FIG. 3). Each concentration was pipetted in duplicate with duplicates being pipetted on an inner ring of drops. The plates were incubated at 37° C. overnight and assessed the following day for growth. The MBC was defined as the concentration at which 99.9% of colonies were eradicated, which was visually assessed by a lack of growth on the agar where the drop was placed. […] The MBC values for 50% and 90% of the isolates (MBC50 and MBC90) were calculated and assessed along with the MBC range in order to select compounds for further study.

bovine mastitis isolates = test: Minimum inhibitory concentration assay (Example 3); format: cell-based
Text: Fifty-one dairy bovine mastitis isolates, encompassing a variety of bacterial species, were isolated from milk samples collected from dairy farms in rural South Australia by the University of Adelaide Ambulatory Clinic. Cellular morphology observed from Gram stains and catalase testing was used to differentiate Staphylococcus, Streptococcus and Corynebacterium species from Gram-negative species. Further biochemical testing including coagulase, Lancefield grouping, esculin hydrolysis and CAMP tests were used to identify the isolates to species level. Where biochemical test results were not definitive in identifying species, amplification and sequencing of the 16S ribosomal RNA gene was used to confirm the identity of the isolates.
Minimum inhibitory concentration tests were performed in the manner outlined by the CLSI (CLSI 2012). Test compounds were dispensed into a 96-well microtitre tray containing 90 μl of CAMHB in 90 μl volumes and serial diluted to obtain a concentration gradient ranging from 128 μg/ml to 0.25 μg/ml (see FIG. 24). For Streptococcus species, CAMHB was replaced with a CAMHB supplement with 4% lysed-sheep blood (4% LSB:CAMHB). 4% LSB:CAMHB was prepared by mixing 5 ml sheep blood to 5 ml milliQ water, and repeated freezing at −20° C. and thawing, followed by centrifuged for 20 min at 7000 rpm. 7 ml of the supernatant was removed and added to 93 mL of CAMB.
Bacterial suspensions were prepared by emulsifying fresh colonies obtained from an overnight culture on Sheep Blood Agar (SBA) in 4 mls of 9.1 g/l physiological saline to an optical density read at 600 nm (OD600nm) between 1.00 and 1.20. Standardised bacterial suspensions were diluted 1:10 in physiological saline and dispensed into all wells, excluding the negative control wells, in 10 μL volumes giving a final concentration of between 4×10^5 and 5×10^5 CFU/mL in each well. 96-well microtitre trays were incubated for 24 hours at 37° C. in 5% CO2 and then assessed both visually and using OD readings from a microplate reader at a wavelength of 600 nm. These tests were performed in duplicate and repeated if discrepancies in MIC values were observed between replicates.
The minimum inhibitory concentration (MIC) was determined to be the lowest concentration of antibiotic that prevented growth of bacteria both visually and using OD readings. MIC values were collated and used to determine the lowest concentration of each compound effective against 50% and 90% of isolates, known as the MIC50 and MIC90 respectively. These values as well as the range of MIC values were then used for direct comparisons between test compounds and for general comparisons with ampicillin.

[3] = dogs; cited from earlier work
[4] = humans; cited from earlier work
[5] = accidental inhalation and swallowing of about 1 mg/kg, human; cited from earlier work
[6] = Dilution in Cation Adjusted Mueller Hinton Broth; format: physicochemical
Method: For each of the five test compounds, a […] stock solution was created by dissolving 2.56 grams of compound in 10 ml of dimethyl sulfoxide (DMSO). The resulting solution was then aliquoted into 500 μL volumes and stored at −80° C. A […] stock solution of ampicillin was also created by dissolving 0.303 grams of ampicillin (Sigma A-0166) in 10 ml of DMSO. This solution was aliquoted and stored in the same manner as the five test compounds. When these compounds were required, a 256 μg/ml working solution was created by diluting 100 μl of stock solution (25.6 mg/ml) in 9.9 ml of Cation-Adjusted Mueller Hinton Broth (CAMHB)
LP4525 had the most consistent MIC values for all isolates, and this is evidenced by the small MIC range. LP4525 also has a lower MIC90 value compared to all compounds.

MRSA 9 [7] = test: Microdilution time-kill assay; format: cell-based, Staphylococcus aureus; conditions: 48 hours
Method: Following assessment of MIC and MBC results, two compounds were chosen for analysis using microdilution time-kill assays, LP 1369 and LP 6315 and these were compared to ampicillin. Time-kill assays were performed according to the M26-A guidelines of the CLSI, with modifications. The test compounds and ampicillin were serial diluted in CAMHB across the rows of a 96 well plate and a bacterial suspension was prepared and added in the same manner as the MIC testing. […] The time points assessed were 0, 1, 2, 4, 8, 12, 24 and 48 hours after the addition of the bacterial suspension to the wells. Each test compound was tested in triplicate while ampicillin was tested in duplicate and this test was independently repeated. The bacterial strains used for the microdilution assays were chosen based on bactericidal activity evident during MBC testing. One strain from each of the categories of Staphylococcus in the isolate collection (methicillin-sensitive, methicillin resistant and coagulase negative) were selected as well as the ATCC reference strain for comparison. These strains were strains MSS 1, MSS 11, MRSA 9 and the ATCC 49775 reference strain.

[8] = system: ATCC 49775 reference strain; test: Macrodilution time-kill assay; format: cell-based, Staphylococcus; conditions: 24 hours
Method: (§1) Due to the detection limit of the OD measurements, the time-kill assays were also performed in macrodilution. In 15 mL tubes, 9 mL volumes of the test compounds in CAMHB were prepared at one, four and eight times the MIC concentration and 9 mL volumes of ampicillin were prepared in CAMHB at one and four times the MIC. 1 mL of a 4 to 5×10^6 bacterial suspension (as prepared for MIC testing) was added to each of the tubes as well as a growth control tube containing only 9 mL of CAMHB. These tubes were incubated at 37° C. in an orbital shaker rotating at 100 rpm for 24 hours. At 0, 1, 4, 8, 12 and 24 hours after addition of the bacteria, 100 μL samples were removed from each tube and serial diluted in 9.1 g/L saline solution. The dilutions were then plated in duplicate onto plate count agar and incubated for 24 hours at 37° C. After incubation, viable counts were obtained from the number of colonies visible on the agar and these were used to calculate the number of CFU/mL at each time point. For the macrodilution time-kill analysis, only the ATCC 49775 reference strain and MRSA 9 were assessed in order to further investigate the antibacterial activity against methicillin-resistant strains. These macrodilution time-kill assays were independently repeated and bactericidal activity was defined as a ≥3 log decrease in the number of CFU/mL.

MRSA 9 [9] = test: Macrodilution time-kill assay; format: cell-based, Staphylococcus aureus; conditions: 24 hours
Method: as §1

[10] = 51 Australian bovine mastitis isolates

Row | Molecule | MIC50 and MIC90 values compared with ampicillin [1] | strains against which bactericidal activity was exhibited more consistently [2] | bactericidal activity (MBC testing) [2] | MIC values (in words) (bovine mastitis isolates) | antibacterial activity against the bovine mastitis isolates (bovine mastitis isolates) | MIC90 (bovine mastitis isolates; [10]) [µg/mL] | daily intake that leads to neurotoxic effects (myelin loss, axonal degeneration) [3] | acceptable daily intake (ADI) [4] [µg/kg] | toxicity after accidental exposure [5] | MIC90 value and MIC range (in words) ([1]; all strains) | MIC90 values for each of the groups of mastitis pathogens (in words) (bovine mastitis isolates; compared with the other compounds) | turbidity or precipitate upon dilution [6] | resulting growth after 48 hours (MRSA 9 [7]) | bactericidal or bacteriostatic (>=3 log decrease in CFU/mL = bactericidal) ([8]; LP 6315: most concentrations) | decrease in the number of viable bacteria ([8]; all concentrations tested) [log10] | bactericidal or bacteriostatic (>=3 log decrease in CFU/mL = bactericidal) (MRSA 9 [9]; LP 6315: most concentrations) | decrease in the number of viable bacteria (MRSA 9 [9]; all concentrations tested) [log10] | MIC50 (bovine mastitis isolates; [10]) [µg/mL]
1 | CC[C@@H](C(=O)[C@@H](C)[C@@H](O)[C@H](C)[C@@H]1O[C@@H]([C@@H](CC)C(=O)O)CC[C@@H]1C)[C@H]1O[C@]2(C=C[C@@H](O)[C@]3(CC[C@@](C)([C@H]4CC[C@](O)(CC)[C@H](C)O4)O3)O2)[C@H](C)C[C@@H]1C [LP 1088, Salinomycin] | considerably lower than ampicillin | methicillin-sensitive strains | some bactericidal activity in lower concentrations | low MIC values | observed | 2 (≈ 2.66 µM) | more than 500 μg/kg | 5 | severe acute and chronic salinomycin toxicity |  |  |  |  |  |  |  |  | 
2 | CC[C@@]1([C@@H]2O[C@@H]([C@H]3O[C@@](O)(CO)[C@H](C)C[C@@H]3C)C[C@@H]2C)CC[C@H]([C@]2(C)CC[C@]3(C[C@H](O)[C@@H](C)[C@@H]([C@@H](C)[C@@H](OC)[C@H](C)C(=O)O)O3)O2)O1 [LP 9666, Monensin] | considerably lower than ampicillin |  |  |  | observed | 128 (≈ 191 µM) |  |  |  | high MIC90 value and broad MIC range | significantly higher | large amount of precipitate |  |  |  |  |  | 
3 | CC1(C)S[C@@H]2[C@H](NC(=O)[C@H](N)c3ccccc3)C(=O)N2[C@H]1C(=O)O [ampicillin] |  |  |  |  |  |  |  |  |  |  |  |  | comparable to the growth control | bactericidal | > 3 | bactericidal | > 3 | 
4 | Narasin [LP 4525] | considerably lower than ampicillin | methicillin-sensitive strains | some bactericidal activity in lower concentrations | low MIC values | observed | 1 |  |  |  |  |  |  |  |  |  |  |  | 0.25

Reference: patent publication US11491105B2, “Methods of treating microbial infections, including mastitis” (priority 2013, dated 2022)
